Earlier results in US12404524B2, “Expression vector” (priority 2019, dated 2025).

System: common Streptomyces expression strains
Conditions: inducers of Potr and PnitA in single-gene expression experiments

SMILES: CN(C)[C@@H]1C(O)=C(C(N)=O)C(=O)[C@@]2(O)C(O)=C3C(=O)c4c(O)cccc4[C@@](C)(O)[C@H]3[C@H](O)[C@@H]12 [oxytetracycline]
- effect on physiology or growth rate: no effect

SMILES: O=C1CCCCCN1 [ε-caprolactam]
- effect on physiology or growth rate: no effect
